# Reference: paper PMC8752837, “Structural basis of BAK activation in mitochondrial apoptosis initiation” (Nature Communications, 2022)
# Key:
# [1] = biological target: T1, MEAS-BAK-His6 (Homo sapiens, UniProt Q16611); experiment: Surface plasmon resonance; format: binding; conditions: 20 °C
# T1 construct: C-terminus truncated recombinant human BAK containing C-terminal 6× histidine tag (MEAS-BAK); made in house; host or cells: E. coli T7 Express pLac I/Y
# T1 sequence (Q16611 1-186 limits assumed): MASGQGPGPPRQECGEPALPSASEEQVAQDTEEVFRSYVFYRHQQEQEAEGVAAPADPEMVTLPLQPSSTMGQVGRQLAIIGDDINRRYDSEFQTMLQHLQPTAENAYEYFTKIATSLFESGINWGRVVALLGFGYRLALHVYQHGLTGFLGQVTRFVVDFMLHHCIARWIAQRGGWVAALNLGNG
# Procedure: We conducted SPR experiments at 20 °C using a Pioneer FE optical biosensor (ForteBio) amd histidine-tagged MEAS-BAK-His6 immobilized on polycarboxylate hydrogel-coated gold chips preimmobilized with nitrilotriacetic acid (HisCap chips; ForteBio). We primed the chip in chelating buffer (10 mM HEPES pH 7.4, 150 mM NaCl, 50 µM EDTA, 0.005% Tween20) and preconditioned it at 10 µL/min with three 60 s injections of wash buffer (10 mM HEPES pH 8.3, 150 mM NaCl, 350 mM EDTA, 0.05% Tween20) and one 60 s injection of chelating buffer before charging with a 60 s injection of 500 µM NiCl2 in chelating buffer. After priming into binding buffer (20 mM HEPES pH 8.0, 200 mM NaCl, 1 mM TCEP, 0.01% Tween20), we injected BAK to achieve ~500 RU of captured protein. As reference cell, we charged one flow cell on the chip with Ni^2+ without adding protein. […] We included a series of buffer-only (blank) injections throughout the experiment to account for instrumental noise. […] We processed, double-referenced, solvent corrected, and analyzed the data using the software package Qdat (version 4.3.1.2, ForteBio). We determined kinetic rate constants and affinities by fitting the data to a 1:1 interaction model.
# [2] = biological target: T2, WT tevBAK (Homo sapiens, UniProt Q16611); experiment: Isothermal titration calorimetry; format: binding; conditions: for % bound: estimated as ([BID BH3] × 100)/(KD + [BID BH3])
# T2 construct: To generate tevBAK (residues 22–186), we cleaved off the histidine tag with TEV protease; His tag (vector pNIC28-Bsa4) (N, cleaved yes); made in house; host or cells: E. coli T7 Express pLac I/Y
# T2 sequence (Q16611 22-186): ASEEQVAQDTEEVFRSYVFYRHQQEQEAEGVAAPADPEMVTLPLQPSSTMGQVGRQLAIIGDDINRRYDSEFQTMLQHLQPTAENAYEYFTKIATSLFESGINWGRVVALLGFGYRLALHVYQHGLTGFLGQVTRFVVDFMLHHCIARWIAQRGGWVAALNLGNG
# Procedure: Protein samples were exchanged into 20 mM HEPES, 100 mM NaCl and 1 mM TCEP prior to the experiment. Titrations were performed by first injecting 0.5 μl of 250 or 500 µM BID BH3 peptides into a solution of 20 or 50 µM BAK followed by additional 2 μl injections. […] Results were analyzed using Origin software (OriginLab) provided by MicroCal. Binding constants (KD) and thermodynamic parameters were calculated from the average of two or three individual titrations by fitting the data to a single site binding model using a nonlinear least-squares fitting algorithm.
# [3] = biological target: T3, Human BAK-∆TM-His6 (BAK) (Homo sapiens, UniProt Q16611); experiment: Liposome permeabilization assay (ANTS/DPX dye release from LUVs): activation of WT BAK by BH3 peptides; format: biochemical; conditions: 50 nM BAK, disubstituted BID-like BH3 peptides, Fig. 5c
# T3 construct: C-terminus truncated recombinant human BAK containing C-terminal 6× histidine tag (MEAS-BAK); made in house; host or cells: E. coli T7 Express pLac I/Y
# T3 sequence (Q16611 1-186 limits assumed): T1 sequence (Q16611 1-186 limits assumed)
# Procedure: We performed liposome permeabilization assays as previously described[43]–[46]. […] We mixed the lipid film in ANTS/DPX solution by vortexing and sonication (~15 min) followed by extrusion through polycarbonate membrane of 2 μm pore size (Avanti Polar lipids) to generate homogenous large unilamellar vesicles (LUVs). We separated LUVs from free ANTS/DPX by S500 size exclusion chromatography and stored them at 4 °C in the dark. We prepared peptide and protein dilutions in 96-well black flat bottom plates (Costar) kept on ice. […] We quantified liposome permabilization by integrating area under curve (AUC) of normalized traces based on the Simpson’s equation, and analyzed that data in Excel and GraphPad Prism. AUC measurements reflect the kinetic and extent of liposome permeabilization and provide quantitative means for comparison between different experimental conditions (e.g., BAK mutants with gross or partial variation in activity).
# [4] = 25 °C, single site binding model
substance,measurement,setting,value
Ac-EDIIRNIARHLAQWGDSMDRSW-NH2 [W(3)W(5)],SPR kd,[1]; 1:1 interaction model,2.41±0.01 ×10-2 s-1
same,kon,"[1]; 1:1 interaction model, read-out: SPR ka",71900 ± 100 M⁻¹ s⁻¹
same,Kd,"[1]; MEAS-BAK-His6 captured on Ni-NTA HisCap chip, three-fold peptide dilution series injected in triplicate, 1:1 interaction model, read-out: SPR KD",336 ± 1 nM
same,SPR Rmax,[1]; ~500 RU captured BAK,79.2±0.1 RU
same,% of BAK bound to peptide under crystallization conditions,"[2]; 10 mg/mL BAK (0.5 mM) and 2 mM peptide, from KD of […]",~99.99%
same,ITC -T∆S,[2]; [4],5.53 ± 1.6 kcal/mol
same,ITC ∆G,[2]; [4],-9.02 ± 0.10 kcal/mol
same,ITC ∆H,[2]; [4],-14.55 ± 1.76 kcal/mol
same,% bound,"[2]; [BID BH3] 1 μM, listed as W3W5 peptide",80%
same,% bound,[2]; [BID BH3] 10 μM,97.5%
same,BAK activation or inhibition in liposome permeabilization,[3]; listed as W(3)W(5) BID BH3 ligand,fully inhibitory
same,BAK activation or inhibition in liposome permeabilization,[3]; listed as W(3)W(5) BID BH3 peptide,"activates BAK efficiently at low doses, yet inhibits BAK at high doses"
